Assay: in vitro
Settings: human, hela cells, % viability

Compound	viability at 28.5 h, 10 µM [%]
COc1cc(Nc2cncc(-c3cccs3)n2)cc(OC)c1OC [CBK065663]	80.4
CN(C)CCN(C)c1cncc(-c2cccs2)n1 [CBK065679]	108
Nc1ccc(-c2cncc(N3CCN(c4ccncc4)CC3)n2)cc1 [CBK065681]	97
C[C@H](Nc1cncc(-c2ccc(F)cc2F)n1)c1ccccc1 [CBK065684]	98.9
Fc1ccc(-c2cncc(Nc3ccc4c(c3)OC(F)(F)C(F)(F)O4)n2)c(F)c1 [CBK065692]	103
C[C@H](Nc1cncc(-c2cccc(N(C)C)c2)n1)c1ccccc1 [CBK065699]	96.8
CCN(CC)CCN1CCN(c2cncc(-c3cccs3)n2)CC1 [CBK065703]	95.5
N#Cc1ccccc1N1CCN(c2cncc(-c3ccc(F)cc3F)n2)CC1 [CBK065708]	102
C[C@H](Nc1cncc(-c2cccs2)n1)c1ccccc1 [CBK065719]	93.5
CCOc1ccc(-c2cncc(N[C@@H](C)c3ccccc3)n2)cc1 [CBK065720]	106
CN(C)CCN(C)c1cncc(-c2ccc(Cl)cc2)n1 [CBK065724]	93
CC(=O)Nc1ccc(-c2cncc(Nc3ccc4c(c3)OC(F)(F)C(F)(F)O4)n2)cc1 [CBK065726]	98.7
FC1(F)Oc2ccc(Nc3cncc(-c4cccs4)n3)cc2OC1(F)F [CBK065727]	110
CCOc1ccc(-c2cncc(Nc3ccc4c(c3)OC(F)(F)C(F)(F)O4)n2)cc1 [CBK065728]	96.8
CN(C)c1cccc(-c2cncc(Nc3ccc(Cl)cc3)n2)c1 [CBK065738]	98.8
OCCN(CCO)c1cncc(-c2ccc(Cl)cc2)n1 [CBK065748]	95.2
FC(F)(F)c1cccc(Nc2cncc(-c3cccs3)n2)c1 [CBK065750]	125
CCN(CC)CCN1CCN(c2cncc(-c3cccc(N)c3)n2)CC1 [CBK065751]	97.2
CCC(CO)Nc1cncc(-c2cccc(F)c2)n1 (stereo not shown) [CBK065752]	96.1

Compound	viability at 28.5 h, 10 µM [%]
Fc1ccc(-c2cncc(Nc3cccc(C(F)(F)F)c3)n2)c(F)c1 [CBK065763]	92.5
CC(=O)Nc1ccc(-c2cncc(Nc3ccc(F)c(Cl)c3)n2)cc1 [CBK065765]	96.1
CCOc1ccc(-c2cncc(NCCc3ccncc3)n2)cc1 [CBK065774]	94.6
CCC(CO)Nc1cncc(-c2ccccc2CO)n1 (stereo not shown) [CBK065775]	103
CCC(CO)Nc1cncc(-c2cccc(C(F)(F)F)c2)n1 (stereo not shown) [CBK065783]	99.4
O=C(NCCO)c1cccc(-c2cncc(N3CCN(Cc4ccccn4)CC3)n2)c1 [CBK065784]	90.1
CN(C)c1cccc(-c2cncc(Nc3cccc(C(F)(F)F)c3)n2)c1 [CBK065786]	100
CC(=O)Nc1ccc(-c2cncc(N(CCO)CCO)n2)cc1 [CBK065789]	106
COc1ccc(C(C)C)cc1-c1cncc(N2CCN(Cc3ccccn3)CC2)n1 [CBK065792]	88.6
CCOc1ccc(-c2cncc(Nc3cccc(C(F)(F)F)c3)n2)cc1 [CBK065798]	50
Clc1ccc(Nc2cncc(-c3cccs3)n2)cc1 [CBK065805]	107
Nc1cccc(-c2cncc(N(CCO)CCO)n2)c1 [CBK065808]	95.5
Fc1ccc(-c2cncc(NCCc3ccncc3)n2)c(F)c1 [CBK065810]	104
OCCN(CCO)c1cncc(-c2cccc3ccccc23)n1 [CBK065812]	84.5
O=C(c1ccco1)N1CCN(c2cncc(-c3ccc(F)cc3F)n2)CC1 [CBK065818]	93.7
Fc1ccc(-c2cncc(NCc3ccco3)n2)c(F)c1 [CBK065834]	91.9
OC1CCC(Nc2cncc(-c3ccc(F)cc3F)n2)CC1 (stereo not shown) [CBK065835]	107
CCCNc1cncc(-c2ccc(OCC)cc2)n1 [CBK065845]	99.8

— paper PMC12040169 (PLOS Biology, 2025)
